Like-named read-outs stand apart in the source and are kept apart here.
How the values were obtained:
[1] = system: primary human NK cells; test: NK cell activation assessed by cytokine secretion (coculture with K562 NucRed target cells); type: cell-based; details: K562, NK cells cocultured with K562 NucRed, 1:1 E/T; for fold induction at 0.625 µM: 0.625 μM compound; for fold induction at 2.5 µM: 2.5 μM compound; for fold induction at 10 µM: 10 μM compound
Description: Peripheral blood mononuclear cells (PBMC) were obtained either: 1) by using Ficoll-Paque™ (GE Healthcare) for separation of peripheral blood hematopoietic cells from buffy coats of healthy human donors; or 2) directly from LeukoPak donations. […] The cells were cultured overnight with IL-2 (60 ng/mL) at 37° C. 5% CO2. Cbl-b inhibitors were added 1 hour prior to stimulation and incubated at 37° C. 5% CO2 at a specific concentration (e.g., 10 μM, 1 μM, or 0.1 μM) with a final DMSO concentration of <0.1%. NK cells were co-cultured with target cells that were engineered to have a red nucleus (K562 NucRed) measurable by flow cytometry. […] The cells were mixed at the indicated ratios (e.g., 5:1, 1:1, or 1:5) of NK (effector cells) to K562 NucRed (target cells) for 6 hours. Cell free supernatants were collected and analyzed for cytokine secretion (e.g. TNFα, IFNγ, or MIP1β) by ELISA or Luminex multiplex kits following the manufacturer's protocol. IFNγ secretion was assessed using an R&D Systems ELISA kit (Catalog #DY285), TNFα secretion was assessed using an R&D Systems ELISA kit (Catalog #DY210), and MIP1β secretion was assessed using an R&D Systems ELISA kit (Catalog #DY271).
Readouts were reported as fold change over baseline. Baseline for this study was the measurement obtained from primary human NK effector cells cocultured with K562 NucRed target cells in the absence of a Cbl-b inhibitor. For NK cells cocultured with K562 NucRed cells, changes greater than 2.0-fold over baseline for cytokine secretion were considered a positive response (Table 10a and 10b).

[2] = system: T-cell; test: IL-2 secretion from T-cells stimulated with anti-CD3 antibody alone (Biological Example 2); type: cell-based, human; details: Homo sapiens, T-cell; 1 μM Cbl-b inhibitor; fold change over baseline (anti-CD3/anti-CD28 stimulated T-cells without inhibitor); read-out: IL-2 secretion Anti-CD3 stimulation
[3] = biological target: Cbl-b (residues 36-427) (Homo sapiens, UniProt Q13191); test: Cbl-b binding assay (SPR, Biacore T200); details: 20° C., 1:1 binding model
In short: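 Steps: capture protein on NeutrAvidin surface; inject compound dilutions (8 or 10 points from 100 or 50 μM) 50 s; allow 90-180 s dissociation; regenerate 20 s with 0.3 M NaCl. Runs at 20° C in HEPES pH 7.5/100 mM NaCl/2% DMSO; 1:1 fitting.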

[4] = read-out: IFNγ secretion, fold change over baseline
[5] = read-out: TNFα secretion, fold change over baseline

Sequence of Cbl-b (residues 36-427) (Q13191 36-427): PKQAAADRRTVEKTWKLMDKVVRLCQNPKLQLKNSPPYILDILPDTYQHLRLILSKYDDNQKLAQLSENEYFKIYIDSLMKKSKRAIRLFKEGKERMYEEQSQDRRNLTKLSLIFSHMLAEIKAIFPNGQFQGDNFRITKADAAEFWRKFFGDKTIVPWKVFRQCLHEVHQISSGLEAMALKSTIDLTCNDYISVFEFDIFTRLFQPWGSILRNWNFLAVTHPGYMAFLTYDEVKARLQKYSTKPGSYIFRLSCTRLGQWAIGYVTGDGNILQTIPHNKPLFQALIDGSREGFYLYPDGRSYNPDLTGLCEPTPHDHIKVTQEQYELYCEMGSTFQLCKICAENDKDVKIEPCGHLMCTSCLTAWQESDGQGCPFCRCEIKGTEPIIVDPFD

Compound | fold induction at 0.625 µM [1, 4] | fold induction at 0.625 µM [1, 5] | fold induction at 2.5 µM [1, 4] | fold induction at 2.5 µM [1, 5] | fold induction at 10 µM [1, 4] | fold induction at 10 µM [1, 5] | fold induction at 1 µM [2] | Kd [3]
C[C@@H](c1cc2c(c(C(F)(F)F)c1)CN(c1cccc(C3(Cc4nncn4C)COC3)c1)C2=O)N1CC[C@H](F)C1 [Compound 412, 6-((S)-1-((S)-3-fluoropyrrolidin-1-yl)ethyl)-2-(3-(3-((4-methyl-4H-1,2,4-triazol-3-yl)methyl)oxetan-3-yl)phenyl)-4-(trifluoromethyl)isoindolin-1-one] | 2.01 to 5 | 2.01 to 5 | 2.01 to 5 | 2.01 to 5 | > 5 | 2.01 to 5 | – | –
C[C@H](c1cc2c(c(C(F)(F)F)c1)CN(c1cccc(C3(Cc4nncn4C)COC3)c1)C2=O)N1CC[C@H](F)C1 [Compound 413, 6-((R)-1-((S)-3-fluoropyrrolidin-1-yl)ethyl)-2-(3-(3-((4-methyl-4H-1,2,4-triazol-3-yl)methyl)oxetan-3-yl)phenyl)-4-(trifluoromethyl)isoindolin-1-one] | 2.01 to 5 | 2.01 to 5 | > 5 | 2.01 to 5 | > 5 | 2.01 to 5 | – | –
Cn1cnnc1CC1(c2cccc(N3Cc4c(cc(CN5CC(F)C5)cc4C(F)(F)F)C3=O)c2)COC1 [Compound 415, 6-((3-fluoroazetidin-1-yl)methyl)-2-(3-(3-((4-methyl-4H-1,2,4-triazol-3-yl)methyl)oxetan-3-yl)phenyl)-4-(trifluoromethyl)isoindolin-1-one] | 2.01 to 5 | 1.01 to 2 | 2.01 to 5 | 2.01 to 5 | > 5 | 2.01 to 5 | – | –
Cn1cnnc1CC1(c2cccc(N3Cc4c(cc(CN5CC[C@H](C#N)C5)cc4C(F)(F)F)C3=O)c2)COC1 [Compound 422, (S)-1-((2-(3-(3-((4-methyl-4H-1,2,4-triazol-3-yl)methyl)oxetan-3-yl)phenyl)-3-oxo-7-(trifluoromethyl)isoindolin-5-yl)methyl)pyrrolidine-3-carbonitrile] | 1.01 to 2 | 1.01 to 2 | 2.01 to 5 | 1.01 to 2 | 2.01 to 5 | 2.01 to 5 | – | –
Cn1cnnc1C(F)(F)[C@](C)(F)c1cccc(N2Cc3c(cc(N4CCNCC4)cc3C(F)(F)F)C2=O)c1 [Compound 442, (R)-6-(Piperazin-1-yl)-2-(3-(1,1,2-trifluoro-1-(4-methyl-4H-1,2,4-triazol-3-yl)propan-2-yl)phenyl)-4-(trifluoromethyl)isoindolin-1-one] | 2.01 to 5 | 2.01 to 5 | 2.01 to 5 | 2.01 to 5 | 2.01 to 5 | 1.01 to 2 | – | –
Cn1cnnc1C(F)(F)[C@](C)(F)c1cccc(N2Cc3c(cc(CN4CC[C@@H](C#N)C4)cc3C(F)(F)F)C2=O)c1 [Compound 455, (R)-1-((3-oxo-2-(3-((R)-1,1,2-trifluoro-1-(4-methyl-4H-1,2,4-triazol-3-yl)propan-2-yl)phenyl)-7-(trifluoromethyl)isoindolin-5-yl)methyl)pyrrolidine-3-carbonitrile] | > 5 | 1.01 to 2 | > 5 | 2.01 to 5 | > 5 | 2.01 to 5 | – | –
Cn1cnnc1[C@H](F)C1(c2cccc(N3Cc4c(cc(CN5CCC(F)CC5)cc4C(F)(F)F)C3=O)c2)COC1 [Example 670b, (R)-2-(3-(3-(fluoro(4-methyl-4H-1,2,4-triazol-3-yl)methyl)oxetan-3-yl)phenyl)-6-((4-fluoropiperidin-1-yl)methyl)-4-(trifluoromethyl)isoindolin-1-one] | – | – | – | – | – | – | > 0.201 | < 100 nM
